Experimental findings from publication PMC6010013, “Synthesis, physiochemical property and antimicrobial activity of novel quaternary ammonium salts” (Journal of Enzyme Inhibition and Medicinal Chemistry, 2017) are described below.

The subject of one series is Aspergillus niger. The experiment in a line: MIC, broth tube dilution. The series is classed as cell-based. Conditions: 72 h, 28 ℃, read-out: Minimal inhibitory concentration (MIC). From the text:
(§1) In this paper, antimicrobial activities of 24 QASs were detected by quantitative tests. […] Benzalkonium chloride (BZK) and chlorhexidine acetate (CA) was selected as positive controls. Representative compound POT-C12QAS (2) which synthesised and evaluated in previous work was also taken as a reference compound in MIC, MBC and cytotoxicity tests. […]
(§2) agriculture were used as target pathogens in this study, including three strains of Gram-positive bacteria (S. Aureus, α-H-tococcus, β-H-tococcus), three strains of Gram-negative bacteria (E. coli, P. aeruginosa, Proteus vulgaris) and four strains of fungi (Canidia albicans, Cytospora mandshurica, Physalospora piricola, Aspergillus niger). The antimicrobial tests were assayed, according to standard CLSI methods for antimicrobial dilution susceptibility tests to measure the minimum inhibitory concentration (MIC) and minimum bactericidal concentration (MBC)2.
(§3) A broth tube dilution method was followed to determine the MIC values for all the screened compounds against the micro-organisms, and for comparison benzalkonium chloride (BZK) and chlorhexidine acetate (CA) was used as a reference. For sample preparation, each of the test compounds and reference were dissolved in DMSO or sterile water at a concentration of 1600 μg/mL, and further dilutions of the compounds and reference in culture medium MHB (Muller-Hinton Broth) were prepared at the required quantities of 400, 200, 100 etc., down to 0.39 μg/mL. Bacterial strains and fungal strains were maintained on MHA (Muller-Hinton Agar) medium at 37℃ or 28 ℃ for 12 h or 72h, respectively. The microbial inocula were prepared by suspension in 10 mL of culture medium for colonies from culture on MHA. The cell density of each inoculum was adjusted in culture medium of a 0.5 McFarland standard (1-2×10^8 CFU/mL). The final amount applied was 10^5 CFU/mL for bacteria and fungi. The microbial inocula were added to the twofold diluted samples. One growth control tube was prepared […] the addition of the compound and one blank tube was prepared without the addition of the microorganism. MIC values were read after incubation at 37℃ or 28 ℃ for bacterial and fungal strains, respectively. After 12 h or 72h, the last tube with no growth of micro-organisms was recorded to represent the MIC value expressed in μg/ml. All experiments were carried out three times. […]

The subject of the next series is Canidia albicans. Briefly: MIC, broth tube dilution. The series is classed as cell-based. Conditions: 72 h, 28 ℃, read-out: Minimal inhibitory concentration (MIC).
Description: as §1, §2, §3

The next series deals with Cytospora mandshurica. Briefly: MIC, broth tube dilution. The series is classed as cell-based. Conditions: Cytospora, 72 h, 28 ℃, read-out: Minimal inhibitory concentration (MIC).
Description: as §1, §2, §3

The next series concerns E. coli. The experiment in a line: MIC, broth tube dilution. Conditions: Escherichia coli, 12 h, 37℃, read-out: Minimal inhibitory concentration (MIC). The series is classed as cell-based.
Description: as §1, §2, §3

The subject of a further series is P. aeruginosa. Briefly: MIC, broth tube dilution. Conditions: Pseudomonas aeruginosa, 12 h, 37℃, read-out: Minimal inhibitory concentration (MIC). The series is classed as cell-based.
Description: as §1, §2, §3

In the next series the test system is Physalospora piricola. The experiment in a line: MIC, broth tube dilution. The note with it: 72 h, 28 ℃, read-out: Minimal inhibitory concentration (MIC). The series is classed as cell-based.
Description: as §1, §2, §3

The next series deals with Proteus vulgaris. The experiment in a line: MIC, broth tube dilution. The series is classed as cell-based. Conditions: 12 h, 37℃, read-out: Minimal inhibitory concentration (MIC).
Description: as §1, §2, §3

In a further series the test system is S. aureus. The experiment in a line: MIC, broth tube dilution. The series is classed as cell-based. Conditions: Staphylococcus aureus, 12 h, 37℃, read-out: Minimal inhibitory concentration (MIC).
Description: as §1, §2, §3

For the next series, the system named is α-H-tococcus. Briefly: MIC, broth tube dilution. The series is classed as cell-based. Conditions: 12 h, 37℃, read-out: Minimal inhibitory concentration (MIC).
Description: as §1, §2, §3

Another series relates to β-H-tococcus. The experiment in a line: MIC, broth tube dilution. The note with it: 12 h, 37℃, read-out: Minimal inhibitory concentration (MIC). The series is classed as cell-based.
Description: as §1, §2, §3

A short description of the next series: Cytotoxicity, MTT assay. The series is classed as cell-based, human. The note with it: human, MTT, 24 h. Here is the method: These six series of antimicrobial compounds may be applied to daily or clinical disinfectants for unbroken skin and trauma, or agricultural fungicides alternatively. Thus, their cytotoxicity for skin or body tissues are crucial. In this study, the cytotoxicity of target compounds was evaluated for human immortalised epidermal (HaCat) and human normal liver (LO2) cell line using MTT assay. […] The IC50 values of 5a, 6a, 10a, 16a, 16 b were about more than 50 μg/mL for LO2 and HaCat.
Cytotoxicity Testing with MTT Method
Human immortalized epidermal cells (HaCat) line were cultured in Dulbecco’s modified Eagle’s medium containing 10% fetal bovine serum, 1% penicillin, and 1% streptomycin at 37°C in a 5% CO2/95% air incubator MCO-15AC (SANYO). Human normal liver cells (LO2) line were cultured in Roswell Park Memorial Institute medium containing 10% fetal bovine serum, 1% penicillin, and 1% streptomycin at 37°C in a 5% CO2/95% air incubator MCO-15AC (SANYO). HaCat or LO2 cells in 96-well plate were adjusted to 1.0 × 10^5 cells mL-1 and cells were passed and cell supernatant was pour out before plating on glass slide at 37°C, 5% CO2 for 24 h. Cells were pretreated with 100 μL QAS for 24 h and cell supernatant with QAS was pour out and washed with PBS buffer system. Then, the cells were treated with the MTT solution (MTT, 3-(4,5-dimethythiazol-2-yl)-2,5-diphenyl-tetrazolium bromide, 20 μL, 5 mg/mL) for 4 h. The dark blue formazan crystal formed in the intact cells was solubilized with dimethyl sulfoxide, and absorbance at 570 nm was measured with a microplate reader (Multiskan MK3-Thermo Labsystems, USA). The results were expressed as percentage of the control value from the normal cells without treatments of QAS. […]

Another series can be described thus: Haemolysis assay. The series is classed as cell-based. The note with it: human red blood cells (erythrocyte suspension), 1 h at 37 ℃, read-out: Haemolysis rate. Here is the method: The surfactant may be absorbed and penetrate to the cell membrane, where it makes osmotic phenomena by altering the permeability of membrane, which in turn causes the cellular lysis. Haemolysis assay gives quantitative estimation about haemoglobin release when red blood cells are treated with QASs. Haemolytic assay of QASs at different concentration was carried out in Table 4. […] For 5a-b, 6a-b, 10a-c, 13a-b, and 16a-d, their safe concentration can more than 100 μg/mL. Compared with BZK and CA, all QASs were safe to be used when they circulated into the blood in low concentration. […]
The human blood from healthy individual was collected in a tube containing heparin, and the blood was centrifuged at 1500 rpm for 3 min. The […] (Erythrocyte) was collected and plasma was discarded and further washed five times with sterile normal saline solution. Then the cells were diluted to 0.2% of their volume with normal saline solution. 2 mL of the diluted red blood cells suspension was mixed with (a) 2 mL of normal salinesolution as a negative control; (b) 2 mL of distilled water as a positive control; (c) 2 mL of QAS solution which were dispersed into normal saline solution at the different concentrations ranging from 3.125 to 400 μg/mL. Then the mixtures were shaken well and incubated for 1 h at 37 ℃. Finally, the mixtures were centrifuged for 5min at 2000 r/min and the absorbances of supernatant at 540 nm was measured by a microplate reader (Multiskan MK3-Thermo Labsystems, USA). The hemolysis ratio was calculated as follows: The hemolysis ratio(%) = (OD Sample−OD Negative)/(OD Positive −OD Negative) ×100%. The hemolysis evaluation of QASs was performed in triplicate and results were expressed as the mean ± SD.

Take `C[N+](CCO)(CCO)CCCCCCCCSc1nnc(-c2ccc(C(F)(F)F)cc2)o1` [Compound 6b]: the MIC in the series with Aspergillus niger stood at 12.5 µg/mL; in the series with Canidia albicans, 25 µg/mL; in the series on Cytospora mandshurica it was 12.5 µg/mL; with E. coli, 25 µg/mL; in the series with P. aeruginosa it was 50 µg/mL; with Physalospora piricola it was 3.12 µg/mL. Also, the MIC with Proteus vulgaris stood at 50 µg/mL; in the series on S. aureus it was 25 µg/mL; in the series with α-H-tococcus, 12.5 µg/mL; with β-H-tococcus, 12.5 µg/mL. Besides, the IC50 at 24 h in “Cytotoxicity, MTT assay” (HaCat cells) was more than 25 µg/mL; in the series “Cytotoxicity, MTT assay” (LO2 human normal liver cells, LO2 cells), more than 25 µg/mL. The hemolysis at 1 h, 6.25 μg/mL in the series “Haemolysis assay” (6.25 μg/mL) came to 0.18 ± 0.06%. In addition, the hemolysis at 1 h, 12.5 μg/mL in “Haemolysis assay” (12.50 μg/mL) turned out to be 0.51 ± 0.08%. Further, the hemolysis at 1 h, 25 μg/mL in the series “Haemolysis assay” (25.00 μg/mL) was determined as 0.43 ± 0.1%. Also, the hemolysis at 1 h, 50 μg/mL in “Haemolysis assay” (50.00 μg/mL) came out at 0.7 ± 0.18%. Moreover, in “Haemolysis assay” (100.00 μg/mL), the hemolysis at 1 h, 100 μg/mL was 4.61 ± 0.31%. Further, the hemolysis at 1 h, 200 μg/mL in the series “Haemolysis assay” (200.00 μg/mL) was 26.2 ± 3.68%. For the same compound, the hemolysis at 1 h, 400 μg/mL in “Haemolysis assay” (400.00 μg/mL) was 80.4 ± 4.98%.

For orientation: IC50 means the concentration at which inhibition is half-maximal.
